Values of other authors as cited in US11701425B2, “Valerian composition and related methods” (Société des Produits Nestlé S.A., priority 2016, dated 2023).

Settings: reported value, no test by the applicant

pKa | SMILES
about 5 | CCCC(CCC)C(=O)O [valproic acid]
about 5 | CC1=C2[C@H](/C=C(\C)C(=O)O)CC[C@@H](C)[C@H]2CC1 [valerenic acid]
